{"source": "ChEMBL document CHEMBL5303766", "about": "“Data for DCP probe FHT-2344” (2022)", "key": {"[1]": {"target": "T1, Serine/threonine-protein kinase DCLK1 (Homo sapiens) (UniProt O15075)", "T1 sequence (whole entry)": "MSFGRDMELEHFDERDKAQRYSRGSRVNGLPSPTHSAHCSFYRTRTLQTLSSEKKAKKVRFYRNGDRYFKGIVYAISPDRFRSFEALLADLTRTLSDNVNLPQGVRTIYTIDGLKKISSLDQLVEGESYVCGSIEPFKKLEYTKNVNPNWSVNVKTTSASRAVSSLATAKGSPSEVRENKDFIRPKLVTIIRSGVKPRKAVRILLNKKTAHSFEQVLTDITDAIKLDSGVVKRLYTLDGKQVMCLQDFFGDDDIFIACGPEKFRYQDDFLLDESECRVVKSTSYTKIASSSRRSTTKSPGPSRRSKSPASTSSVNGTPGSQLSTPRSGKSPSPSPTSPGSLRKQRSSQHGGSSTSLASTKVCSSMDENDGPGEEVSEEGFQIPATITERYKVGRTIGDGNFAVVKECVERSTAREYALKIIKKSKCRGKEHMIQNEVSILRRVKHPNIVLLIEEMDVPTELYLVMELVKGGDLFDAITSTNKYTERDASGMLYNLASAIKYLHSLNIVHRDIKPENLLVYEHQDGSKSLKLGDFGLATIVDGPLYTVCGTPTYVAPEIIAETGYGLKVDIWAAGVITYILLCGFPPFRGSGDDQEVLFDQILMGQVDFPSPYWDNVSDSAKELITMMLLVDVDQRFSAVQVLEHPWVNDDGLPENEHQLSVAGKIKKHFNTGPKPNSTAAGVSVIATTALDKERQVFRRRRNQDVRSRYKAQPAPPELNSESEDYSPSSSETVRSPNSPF", "assay": "DCAMKL1 SGC Tm panel (DSF)", "settings": "for ΔTm: Compound concentration 10.0 uM"}, "[2]": {"target": "T2, Ephrin type-B receptor 3 (Homo sapiens) (UniProt P54753)", "T2 sequence (whole entry)": "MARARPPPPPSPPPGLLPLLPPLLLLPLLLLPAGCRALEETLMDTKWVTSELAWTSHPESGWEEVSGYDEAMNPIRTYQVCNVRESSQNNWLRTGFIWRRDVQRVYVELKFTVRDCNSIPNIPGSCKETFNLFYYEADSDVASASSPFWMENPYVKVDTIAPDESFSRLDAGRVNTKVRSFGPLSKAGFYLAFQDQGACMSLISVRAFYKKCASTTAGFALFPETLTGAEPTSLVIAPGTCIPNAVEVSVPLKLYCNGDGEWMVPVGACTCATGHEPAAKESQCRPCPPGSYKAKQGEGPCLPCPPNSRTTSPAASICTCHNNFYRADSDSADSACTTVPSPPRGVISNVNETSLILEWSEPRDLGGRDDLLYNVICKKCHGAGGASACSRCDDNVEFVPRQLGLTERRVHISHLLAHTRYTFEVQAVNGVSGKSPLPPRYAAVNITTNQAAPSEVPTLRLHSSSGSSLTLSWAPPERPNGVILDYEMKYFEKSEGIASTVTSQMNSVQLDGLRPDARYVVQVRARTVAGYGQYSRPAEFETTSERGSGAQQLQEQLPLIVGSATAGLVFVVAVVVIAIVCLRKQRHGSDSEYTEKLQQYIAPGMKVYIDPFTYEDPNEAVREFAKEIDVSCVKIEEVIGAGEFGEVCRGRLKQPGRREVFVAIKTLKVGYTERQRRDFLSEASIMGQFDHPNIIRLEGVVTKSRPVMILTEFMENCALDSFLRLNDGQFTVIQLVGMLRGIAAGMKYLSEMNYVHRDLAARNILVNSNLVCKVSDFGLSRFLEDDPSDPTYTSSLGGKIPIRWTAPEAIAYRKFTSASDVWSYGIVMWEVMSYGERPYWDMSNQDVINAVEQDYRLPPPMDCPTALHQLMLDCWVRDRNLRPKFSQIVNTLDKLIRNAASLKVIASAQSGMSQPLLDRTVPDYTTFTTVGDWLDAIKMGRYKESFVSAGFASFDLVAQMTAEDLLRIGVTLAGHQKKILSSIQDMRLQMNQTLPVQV", "assay": "EPHB3 SGC Tm panel (DSF)", "settings": "for ΔTm: Compound concentration 10.0 uM"}, "[3]": {"target": "Fibroblast growth factor receptor 1 (Homo sapiens) (UniProt P11362)", "sequence (P11362 22-822 limits assumed)": "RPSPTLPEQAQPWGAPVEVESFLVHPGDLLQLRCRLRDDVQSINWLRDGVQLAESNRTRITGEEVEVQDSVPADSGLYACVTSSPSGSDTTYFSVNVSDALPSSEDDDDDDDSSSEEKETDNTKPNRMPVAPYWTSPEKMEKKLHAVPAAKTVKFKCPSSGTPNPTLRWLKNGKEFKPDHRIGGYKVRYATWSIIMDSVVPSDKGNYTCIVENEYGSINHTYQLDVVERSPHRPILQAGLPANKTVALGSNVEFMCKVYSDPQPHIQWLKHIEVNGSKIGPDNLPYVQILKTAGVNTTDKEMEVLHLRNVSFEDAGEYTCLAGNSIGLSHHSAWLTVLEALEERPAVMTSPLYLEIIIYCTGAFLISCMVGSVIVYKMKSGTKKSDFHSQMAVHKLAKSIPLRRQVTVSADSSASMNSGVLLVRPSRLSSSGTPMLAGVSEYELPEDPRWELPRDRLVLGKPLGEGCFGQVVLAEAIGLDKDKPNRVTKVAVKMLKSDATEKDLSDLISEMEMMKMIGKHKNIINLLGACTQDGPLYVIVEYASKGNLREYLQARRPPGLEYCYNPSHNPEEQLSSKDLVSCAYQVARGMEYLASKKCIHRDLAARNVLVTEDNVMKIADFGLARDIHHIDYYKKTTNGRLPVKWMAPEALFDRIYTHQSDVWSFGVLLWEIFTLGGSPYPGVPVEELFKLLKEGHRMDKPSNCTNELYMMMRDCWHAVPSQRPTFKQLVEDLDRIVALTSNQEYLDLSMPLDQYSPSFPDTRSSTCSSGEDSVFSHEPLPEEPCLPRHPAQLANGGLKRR", "assay": "FGFR1 SGC Tm panel (DSF)", "settings": "for ΔTm: Compound concentration 10.0 uM"}, "[4]": {"target": "Fibroblast growth factor receptor 3 (Homo sapiens) (UniProt P22607)", "sequence (P22607 23-806 limits assumed)": "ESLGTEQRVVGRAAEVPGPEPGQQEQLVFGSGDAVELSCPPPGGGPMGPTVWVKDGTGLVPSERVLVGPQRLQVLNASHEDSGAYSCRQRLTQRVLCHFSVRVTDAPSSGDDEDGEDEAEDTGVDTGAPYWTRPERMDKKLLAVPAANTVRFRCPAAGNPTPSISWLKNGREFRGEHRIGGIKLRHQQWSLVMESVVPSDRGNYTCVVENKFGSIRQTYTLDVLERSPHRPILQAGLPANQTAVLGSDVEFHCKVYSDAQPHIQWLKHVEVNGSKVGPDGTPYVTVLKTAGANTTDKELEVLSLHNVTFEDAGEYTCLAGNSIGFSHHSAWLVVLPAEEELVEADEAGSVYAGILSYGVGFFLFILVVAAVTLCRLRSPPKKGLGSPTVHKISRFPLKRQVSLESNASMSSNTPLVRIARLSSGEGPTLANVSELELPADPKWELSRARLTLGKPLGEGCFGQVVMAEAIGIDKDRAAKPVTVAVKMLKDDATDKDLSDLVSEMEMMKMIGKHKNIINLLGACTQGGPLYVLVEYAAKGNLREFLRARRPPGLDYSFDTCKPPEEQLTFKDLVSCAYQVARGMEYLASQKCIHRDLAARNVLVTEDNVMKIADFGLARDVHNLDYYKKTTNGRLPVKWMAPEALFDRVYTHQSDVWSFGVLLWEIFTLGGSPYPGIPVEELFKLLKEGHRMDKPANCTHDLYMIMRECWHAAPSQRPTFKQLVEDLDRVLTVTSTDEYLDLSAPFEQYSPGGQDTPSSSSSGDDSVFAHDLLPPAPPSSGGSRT", "assay": "FGFR3 SGC Tm panel (DSF)", "settings": "for ΔTm: Compound concentration 10.0 uM"}, "[5]": {"target": "BMP-2-inducible protein kinase (Homo sapiens) (UniProt Q9NSY1)", "assay": "BMP2K SGC Tm panel (DSF)", "settings": "for ΔTm: Compound concentration 10.0 uM"}, "[6]": {"target": "Ribosomal protein S6 kinase alpha-5 (Homo sapiens) (UniProt O75582)", "sequence (O75582 whole entry, looked up)": "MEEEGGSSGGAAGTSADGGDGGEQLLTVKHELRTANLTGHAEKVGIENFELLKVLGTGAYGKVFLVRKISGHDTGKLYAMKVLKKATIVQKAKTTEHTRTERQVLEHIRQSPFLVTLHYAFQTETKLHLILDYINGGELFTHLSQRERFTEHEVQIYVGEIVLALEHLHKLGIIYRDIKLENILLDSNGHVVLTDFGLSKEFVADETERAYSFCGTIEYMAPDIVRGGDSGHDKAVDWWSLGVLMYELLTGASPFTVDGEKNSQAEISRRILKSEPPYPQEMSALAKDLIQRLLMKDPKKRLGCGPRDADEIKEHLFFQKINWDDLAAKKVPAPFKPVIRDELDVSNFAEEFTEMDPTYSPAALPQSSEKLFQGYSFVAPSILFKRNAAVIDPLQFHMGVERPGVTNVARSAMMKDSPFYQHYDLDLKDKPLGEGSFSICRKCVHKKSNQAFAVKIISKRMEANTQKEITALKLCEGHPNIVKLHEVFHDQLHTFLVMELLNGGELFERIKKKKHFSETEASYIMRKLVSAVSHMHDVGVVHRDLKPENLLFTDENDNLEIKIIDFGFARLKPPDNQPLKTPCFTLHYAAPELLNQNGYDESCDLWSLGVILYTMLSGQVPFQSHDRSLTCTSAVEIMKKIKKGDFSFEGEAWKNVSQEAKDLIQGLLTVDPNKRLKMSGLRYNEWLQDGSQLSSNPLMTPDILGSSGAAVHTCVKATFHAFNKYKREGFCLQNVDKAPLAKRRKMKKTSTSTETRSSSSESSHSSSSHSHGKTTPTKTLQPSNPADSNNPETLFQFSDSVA", "assay": "RPS6KA5 SGC Tm panel (DSF)", "settings": "for ΔTm: Compound concentration 10.0 uM"}, "[7]": {"target": "STE20-like serine/threonine-protein kinase (Homo sapiens) (UniProt Q9H2G2)", "assay": "SLK SGC Tm panel (DSF)", "settings": "for ΔTm: Compound concentration 10.0 uM"}, "[8]": {"target": "Serine/threonine-protein kinase WNK1 (Homo sapiens) (UniProt Q9H4A3)", "sequence (Q9H4A3 whole entry, looked up)": "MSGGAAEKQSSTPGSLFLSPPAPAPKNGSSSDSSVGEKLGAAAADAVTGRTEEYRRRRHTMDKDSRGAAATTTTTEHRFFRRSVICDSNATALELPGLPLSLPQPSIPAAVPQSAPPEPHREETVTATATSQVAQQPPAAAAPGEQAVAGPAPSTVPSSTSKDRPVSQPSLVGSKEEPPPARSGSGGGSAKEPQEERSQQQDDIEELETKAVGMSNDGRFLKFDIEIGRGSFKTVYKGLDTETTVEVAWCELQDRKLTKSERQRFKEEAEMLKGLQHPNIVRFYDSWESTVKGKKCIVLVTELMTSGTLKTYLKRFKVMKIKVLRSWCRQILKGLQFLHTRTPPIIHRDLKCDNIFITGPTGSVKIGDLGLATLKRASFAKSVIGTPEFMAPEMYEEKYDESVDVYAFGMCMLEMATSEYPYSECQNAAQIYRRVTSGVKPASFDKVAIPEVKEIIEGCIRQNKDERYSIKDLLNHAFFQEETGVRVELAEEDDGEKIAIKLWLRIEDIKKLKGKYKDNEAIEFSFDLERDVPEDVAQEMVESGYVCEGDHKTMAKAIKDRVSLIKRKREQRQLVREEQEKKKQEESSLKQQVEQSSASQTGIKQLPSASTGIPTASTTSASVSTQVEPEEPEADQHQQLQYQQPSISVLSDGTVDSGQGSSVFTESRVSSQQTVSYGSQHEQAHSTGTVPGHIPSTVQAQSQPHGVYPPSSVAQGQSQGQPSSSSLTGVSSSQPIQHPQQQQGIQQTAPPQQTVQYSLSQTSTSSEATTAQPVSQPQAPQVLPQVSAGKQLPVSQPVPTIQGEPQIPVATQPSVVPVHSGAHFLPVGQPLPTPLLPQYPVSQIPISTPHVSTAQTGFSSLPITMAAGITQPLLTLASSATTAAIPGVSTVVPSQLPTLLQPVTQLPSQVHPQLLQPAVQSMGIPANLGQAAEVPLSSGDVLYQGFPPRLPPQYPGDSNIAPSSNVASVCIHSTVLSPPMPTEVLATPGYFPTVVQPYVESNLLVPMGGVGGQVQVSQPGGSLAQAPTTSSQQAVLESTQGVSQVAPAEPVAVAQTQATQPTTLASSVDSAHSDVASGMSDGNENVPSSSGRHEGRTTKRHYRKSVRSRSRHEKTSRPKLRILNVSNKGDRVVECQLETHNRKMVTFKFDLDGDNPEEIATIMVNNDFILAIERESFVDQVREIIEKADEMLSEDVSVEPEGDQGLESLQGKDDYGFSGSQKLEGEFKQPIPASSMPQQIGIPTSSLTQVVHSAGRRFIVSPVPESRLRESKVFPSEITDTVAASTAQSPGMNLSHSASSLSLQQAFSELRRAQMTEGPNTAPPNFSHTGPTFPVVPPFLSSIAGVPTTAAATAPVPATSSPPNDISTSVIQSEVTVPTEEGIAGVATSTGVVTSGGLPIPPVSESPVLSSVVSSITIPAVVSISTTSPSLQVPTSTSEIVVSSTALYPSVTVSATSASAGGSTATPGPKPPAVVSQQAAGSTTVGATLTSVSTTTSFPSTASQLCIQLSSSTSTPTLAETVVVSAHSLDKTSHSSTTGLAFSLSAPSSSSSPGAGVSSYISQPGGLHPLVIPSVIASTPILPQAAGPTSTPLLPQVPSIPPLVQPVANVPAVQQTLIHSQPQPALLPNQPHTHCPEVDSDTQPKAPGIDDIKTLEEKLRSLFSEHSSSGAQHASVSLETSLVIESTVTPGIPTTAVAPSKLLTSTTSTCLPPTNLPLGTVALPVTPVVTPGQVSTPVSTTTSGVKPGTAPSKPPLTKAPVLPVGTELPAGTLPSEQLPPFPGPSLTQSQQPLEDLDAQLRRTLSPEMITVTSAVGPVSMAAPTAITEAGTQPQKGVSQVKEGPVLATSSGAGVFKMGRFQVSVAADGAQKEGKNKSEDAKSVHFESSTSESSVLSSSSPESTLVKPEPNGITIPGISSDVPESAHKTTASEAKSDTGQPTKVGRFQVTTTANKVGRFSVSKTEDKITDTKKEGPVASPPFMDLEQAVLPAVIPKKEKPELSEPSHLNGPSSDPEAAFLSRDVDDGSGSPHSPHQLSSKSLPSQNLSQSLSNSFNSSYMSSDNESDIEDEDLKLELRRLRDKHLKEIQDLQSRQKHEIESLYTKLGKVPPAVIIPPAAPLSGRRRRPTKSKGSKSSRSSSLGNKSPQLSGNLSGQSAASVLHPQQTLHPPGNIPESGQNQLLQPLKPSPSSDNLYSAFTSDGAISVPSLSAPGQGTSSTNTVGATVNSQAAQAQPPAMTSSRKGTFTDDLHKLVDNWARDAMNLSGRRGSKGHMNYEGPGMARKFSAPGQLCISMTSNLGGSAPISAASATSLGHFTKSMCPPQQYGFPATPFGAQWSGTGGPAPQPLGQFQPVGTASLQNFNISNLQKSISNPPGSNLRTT", "assay": "WNK1 SGC Tm panel (DSF)", "settings": "for ΔTm: Compound concentration 10.0 uM"}, "[9]": {"target": "T3, Serine/threonine-protein kinase tousled-like 1 (Homo sapiens) (UniProt Q9UKI8)", "T3 sequence (whole entry)": "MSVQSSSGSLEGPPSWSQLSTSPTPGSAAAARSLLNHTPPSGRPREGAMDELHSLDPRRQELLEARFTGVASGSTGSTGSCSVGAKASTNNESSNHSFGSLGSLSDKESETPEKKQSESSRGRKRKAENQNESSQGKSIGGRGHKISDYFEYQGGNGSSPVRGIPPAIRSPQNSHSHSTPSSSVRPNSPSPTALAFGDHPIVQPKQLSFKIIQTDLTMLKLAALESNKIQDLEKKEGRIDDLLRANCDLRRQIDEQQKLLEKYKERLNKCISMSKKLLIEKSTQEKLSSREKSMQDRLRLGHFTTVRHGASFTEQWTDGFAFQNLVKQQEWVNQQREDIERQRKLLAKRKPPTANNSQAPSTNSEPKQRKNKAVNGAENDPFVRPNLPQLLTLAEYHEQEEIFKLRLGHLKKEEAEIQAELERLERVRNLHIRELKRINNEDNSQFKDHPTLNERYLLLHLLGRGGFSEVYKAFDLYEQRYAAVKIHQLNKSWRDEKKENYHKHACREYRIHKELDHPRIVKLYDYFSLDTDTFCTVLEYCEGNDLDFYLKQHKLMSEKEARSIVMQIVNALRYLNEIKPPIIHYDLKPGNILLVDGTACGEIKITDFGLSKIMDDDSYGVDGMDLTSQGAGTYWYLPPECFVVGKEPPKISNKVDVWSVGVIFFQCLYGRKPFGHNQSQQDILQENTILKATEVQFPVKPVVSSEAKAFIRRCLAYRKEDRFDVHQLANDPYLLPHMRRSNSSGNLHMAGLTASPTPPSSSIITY", "assay": "TLK1 SGC Tm panel (DSF)", "settings": "for ΔTm: Compound concentration 10.0 uM"}, "[10]": {"target": "Kappa-type opioid receptor (Homo sapiens) (UniProt P41145)", "settings": "Compound concentration 10.0 uM"}}}
{"smiles": "C[C@H](NC(=O)c1cn(C2(C#N)CC2)cn1)C(=O)Nc1nc(-c2cccc(-c3ccn(C)n3)c2)cs1", "values": [{"measurement": "delta Tm Staurosporine positive control", "setting": "[1]", "value": 14}, {"measurement": "ΔTm", "setting": "[1]", "value": -0.00623}, {"measurement": "delta Tm Staurosporine positive control", "setting": "[2]", "value": 7.3}, {"measurement": "ΔTm", "setting": "[2]", "value": -0.415}, {"measurement": "delta Tm Staurosporine positive control", "setting": "[3]", "value": 5.65}, {"measurement": "ΔTm", "setting": "[3]", "value": -0.166}, {"measurement": "delta Tm Staurosporine positive control", "setting": "[4]", "value": 11.8}, {"measurement": "ΔTm", "setting": "[4]", "value": 1.77}, {"measurement": "delta Tm Staurosporine positive control", "setting": "[5]", "value": 18.7}, {"measurement": "ΔTm", "setting": "[5]", "value": 0.335}, {"measurement": "delta Tm Staurosporine positive control", "setting": "[6]", "value": 13.1}, {"measurement": "ΔTm", "setting": "[6]", "value": -0.0945}, {"measurement": "delta Tm Staurosporine positive control", "setting": "[7]", "value": 12.2}, {"measurement": "ΔTm", "setting": "[7]", "value": 0.23}, {"measurement": "delta Tm Staurosporine positive control", "setting": "[8]", "value": 0.638}, {"measurement": "ΔTm", "setting": "[8]", "value": 0.361}, {"measurement": "delta Tm Staurosporine positive control", "setting": "[9]", "value": 9.52}, {"measurement": "ΔTm", "setting": "[9]", "value": 1.6}, {"measurement": "inhibition", "setting": "[10]", "value": 4.84, "unit": "%"}]}
{"smiles": "COC[C@H](NC(=O)c1ccn(S(C)(=O)=O)c1)C(=O)Nc1nc(-c2cccc(-c3ccn(C)n3)c2)cs1", "values": [{"measurement": "delta Tm Staurosporine positive control", "setting": "[1]", "value": 14}, {"measurement": "ΔTm", "setting": "[1]", "value": 0.237}, {"measurement": "delta Tm Staurosporine positive control", "setting": "[2]", "value": 7.3}, {"measurement": "ΔTm", "setting": "[2]", "value": -0.288}, {"measurement": "delta Tm Staurosporine positive control", "setting": "[3]", "value": 5.65}, {"measurement": "ΔTm", "setting": "[3]", "value": -0.0579}, {"measurement": "delta Tm Staurosporine positive control", "setting": "[4]", "value": 11.8}, {"measurement": "ΔTm", "setting": "[4]", "value": 0.361}, {"measurement": "delta Tm Staurosporine positive control", "setting": "[5]", "value": 18.7}, {"measurement": "ΔTm", "setting": "[5]", "value": 0.214}, {"measurement": "delta Tm Staurosporine positive control", "setting": "[6]", "value": 13.1}, {"measurement": "ΔTm", "setting": "[6]", "value": 1.16}, {"measurement": "delta Tm Staurosporine positive control", "setting": "[7]", "value": 12.2}, {"measurement": "ΔTm", "setting": "[7]", "value": 1.33}, {"measurement": "delta Tm Staurosporine positive control", "setting": "[8]", "value": 0.638}, {"measurement": "ΔTm", "setting": "[8]", "value": 0.232}, {"measurement": "delta Tm Staurosporine positive control", "setting": "[9]", "value": 9.52}, {"measurement": "ΔTm", "setting": "[9]", "value": 1.38}, {"measurement": "inhibition", "setting": "[10]", "value": 10.7, "unit": "%"}]}
